This note sets out measurements from ChEMBL document CHEMBL1201862, “PubChem BioAssay data set” (2004).

The source made the active and inactive calls.

Common to all, as to type: functional
Assay [1] addresses Macrophage-stimulating protein receptor (Homo sapiens, UniProt Q04912). Put plainly: Navigating the Kinome. Panel member name: MST1R.
The next assay concerns the target Ephrin type-A receptor 2 (Homo sapiens, UniProt P29317).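 Also: EPHA2 tested as one member of a kinome-wide kinase panel.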
The target in assay [2] is Tyrosine-protein kinase ITK/TSK (Homo sapiens, UniProt Q08881).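 Also: affinity for ITK measured as one member of a broad kinase panel profiling binding across the kinome.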
Assay [3] concerns the target Serine/threonine-protein kinase D2 (Homo sapiens, UniProt Q9BZL6).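 Also: measured against PRKD2 as one member of a kinome-wide kinase profiling panel.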
Assay [4] has as its target cAMP-dependent protein kinase catalytic subunit PRKX (Homo sapiens, UniProt P51817).
For assay [5], the target named is Casein kinase I isoform gamma-1 (Homo sapiens, UniProt Q9HCP0).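 Also: measured as the CSNK1G1 member of a kinome profiling panel.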
Casein kinase I isoform gamma-1, sequence (Q9HCP0 whole entry, canonical isoform): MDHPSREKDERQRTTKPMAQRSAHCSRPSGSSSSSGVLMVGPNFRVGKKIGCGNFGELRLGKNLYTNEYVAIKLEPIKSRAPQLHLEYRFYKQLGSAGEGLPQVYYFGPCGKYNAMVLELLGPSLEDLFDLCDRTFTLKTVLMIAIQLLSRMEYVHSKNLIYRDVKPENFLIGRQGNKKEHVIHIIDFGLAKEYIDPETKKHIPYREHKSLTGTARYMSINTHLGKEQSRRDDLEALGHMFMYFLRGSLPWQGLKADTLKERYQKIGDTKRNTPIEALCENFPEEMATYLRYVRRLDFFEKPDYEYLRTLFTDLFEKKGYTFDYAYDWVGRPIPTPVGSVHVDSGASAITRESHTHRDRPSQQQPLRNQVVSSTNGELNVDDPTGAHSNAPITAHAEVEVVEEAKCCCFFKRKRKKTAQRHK
For assay [6], the target named is Homeodomain-interacting protein kinase 2 (Homo sapiens, UniProt Q9H2X6).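 Also: measured within a kinome-wide kinase profiling panel, HIPK2 being one panel member.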
For assay [7], the target named is MAP kinase-activated protein kinase 2 (Homo sapiens, UniProt P49137).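 Also: measured as one member of a kinome-wide kinase panel.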
MAP kinase-activated protein kinase 2, sequence (P49137 whole entry): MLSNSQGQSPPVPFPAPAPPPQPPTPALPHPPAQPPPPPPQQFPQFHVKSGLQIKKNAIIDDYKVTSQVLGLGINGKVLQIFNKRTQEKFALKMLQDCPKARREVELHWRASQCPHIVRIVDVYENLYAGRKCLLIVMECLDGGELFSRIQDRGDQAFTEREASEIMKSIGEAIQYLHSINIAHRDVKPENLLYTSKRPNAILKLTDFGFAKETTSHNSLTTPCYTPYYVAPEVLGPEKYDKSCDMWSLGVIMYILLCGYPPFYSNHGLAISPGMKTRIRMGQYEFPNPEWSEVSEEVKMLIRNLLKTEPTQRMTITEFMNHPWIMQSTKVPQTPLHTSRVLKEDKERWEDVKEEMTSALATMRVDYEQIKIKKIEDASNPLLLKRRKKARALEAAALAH
Assay [8] has as its target RAC-alpha serine/threonine-protein kinase (Homo sapiens, UniProt P31749).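 Also: AKT1 affinity measured as one member of a kinome-wide kinase profiling panel.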
In assay [9] the target is Serine/threonine-protein kinase PAK 1 (Homo sapiens, UniProt Q13153).
For assay [10], the target named is T1, Serine/threonine-protein kinase D3 (Homo sapiens, UniProt O94806).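 Also: determined within a kinase panel screen, with PRKCN as the panel member.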
T1 sequence (O94806 whole entry): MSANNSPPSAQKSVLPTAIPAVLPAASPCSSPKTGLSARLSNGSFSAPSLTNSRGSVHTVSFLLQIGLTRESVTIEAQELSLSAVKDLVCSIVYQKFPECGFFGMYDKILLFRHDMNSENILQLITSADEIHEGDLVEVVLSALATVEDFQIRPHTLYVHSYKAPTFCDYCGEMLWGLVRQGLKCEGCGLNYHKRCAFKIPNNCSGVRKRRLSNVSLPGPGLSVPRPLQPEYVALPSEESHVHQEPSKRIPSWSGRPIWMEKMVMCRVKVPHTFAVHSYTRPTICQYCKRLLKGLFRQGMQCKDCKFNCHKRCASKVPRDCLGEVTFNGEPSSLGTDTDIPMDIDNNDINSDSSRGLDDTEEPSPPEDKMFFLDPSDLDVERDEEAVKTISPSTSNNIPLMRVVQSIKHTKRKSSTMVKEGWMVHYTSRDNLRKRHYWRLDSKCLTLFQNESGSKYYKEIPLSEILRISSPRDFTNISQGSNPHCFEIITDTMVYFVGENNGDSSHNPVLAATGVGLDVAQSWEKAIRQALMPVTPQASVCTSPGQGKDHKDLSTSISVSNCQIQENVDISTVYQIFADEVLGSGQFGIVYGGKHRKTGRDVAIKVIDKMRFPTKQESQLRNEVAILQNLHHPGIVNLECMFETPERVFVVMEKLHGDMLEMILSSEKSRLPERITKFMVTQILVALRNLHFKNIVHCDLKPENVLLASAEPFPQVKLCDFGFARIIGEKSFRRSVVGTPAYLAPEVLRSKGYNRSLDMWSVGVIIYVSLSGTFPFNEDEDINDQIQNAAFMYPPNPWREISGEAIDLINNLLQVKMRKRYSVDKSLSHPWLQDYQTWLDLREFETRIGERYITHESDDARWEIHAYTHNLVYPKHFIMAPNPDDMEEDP

The target in assay [11] is Mast/stem cell growth factor receptor Kit (Homo sapiens, UniProt P10721).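 Also: KIT entry within a kinase panel assay.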
Mast/stem cell growth factor receptor Kit, sequence (P10721 whole entry): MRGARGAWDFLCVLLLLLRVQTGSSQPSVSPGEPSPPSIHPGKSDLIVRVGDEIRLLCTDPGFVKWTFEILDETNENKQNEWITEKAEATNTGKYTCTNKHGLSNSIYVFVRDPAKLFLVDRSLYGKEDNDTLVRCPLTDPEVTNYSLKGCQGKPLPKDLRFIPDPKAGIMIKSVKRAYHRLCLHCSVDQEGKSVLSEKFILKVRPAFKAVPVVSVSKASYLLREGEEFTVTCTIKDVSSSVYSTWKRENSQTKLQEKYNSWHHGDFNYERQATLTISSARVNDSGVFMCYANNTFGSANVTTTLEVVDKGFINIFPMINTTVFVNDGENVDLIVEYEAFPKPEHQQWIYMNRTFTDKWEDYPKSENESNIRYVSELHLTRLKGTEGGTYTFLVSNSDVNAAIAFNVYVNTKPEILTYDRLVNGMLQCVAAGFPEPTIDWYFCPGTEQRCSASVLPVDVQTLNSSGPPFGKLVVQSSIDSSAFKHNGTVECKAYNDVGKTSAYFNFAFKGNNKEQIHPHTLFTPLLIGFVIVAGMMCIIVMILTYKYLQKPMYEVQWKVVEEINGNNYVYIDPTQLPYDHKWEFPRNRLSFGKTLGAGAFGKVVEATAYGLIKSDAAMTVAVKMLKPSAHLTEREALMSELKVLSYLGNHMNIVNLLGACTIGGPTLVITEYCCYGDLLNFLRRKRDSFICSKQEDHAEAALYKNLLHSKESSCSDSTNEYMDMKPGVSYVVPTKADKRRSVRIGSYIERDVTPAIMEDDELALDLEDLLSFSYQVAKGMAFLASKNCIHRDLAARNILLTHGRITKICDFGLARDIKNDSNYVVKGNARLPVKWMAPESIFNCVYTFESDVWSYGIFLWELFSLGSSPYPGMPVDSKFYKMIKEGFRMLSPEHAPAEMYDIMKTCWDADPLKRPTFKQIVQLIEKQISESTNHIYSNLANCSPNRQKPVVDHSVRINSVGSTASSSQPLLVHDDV
The target in assay [12] is Cyclin-dependent kinase 8 (Homo sapiens, UniProt P49336). In words: Navigating the Kinome. Panel member name: CDK8.
Cyclin-dependent kinase 8, sequence (P49336 whole entry): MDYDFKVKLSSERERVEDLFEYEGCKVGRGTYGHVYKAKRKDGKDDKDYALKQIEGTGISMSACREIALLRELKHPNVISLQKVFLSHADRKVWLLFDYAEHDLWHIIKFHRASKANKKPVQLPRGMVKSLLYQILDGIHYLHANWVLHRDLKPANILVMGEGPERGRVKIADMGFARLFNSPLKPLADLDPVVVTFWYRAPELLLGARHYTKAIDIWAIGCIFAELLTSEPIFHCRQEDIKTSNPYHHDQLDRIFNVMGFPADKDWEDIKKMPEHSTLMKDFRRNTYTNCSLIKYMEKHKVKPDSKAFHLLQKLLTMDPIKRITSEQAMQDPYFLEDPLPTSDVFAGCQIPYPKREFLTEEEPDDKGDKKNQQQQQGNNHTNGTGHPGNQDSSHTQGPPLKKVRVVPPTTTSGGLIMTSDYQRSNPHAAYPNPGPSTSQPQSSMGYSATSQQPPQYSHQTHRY
The target of assay [13] is Macrophage colony-stimulating factor 1 receptor (Homo sapiens, UniProt P07333).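 Also: value comes from the Navigating the Kinome screening panel, CSF1R member.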
Assay [14] has as its target Protein kinase C gamma type (Homo sapiens, UniProt P05129).
Assay [15] addresses cGMP-dependent protein kinase 1 (Homo sapiens, UniProt Q13976).
Assay [16] addresses Death-associated protein kinase 3 (Homo sapiens, UniProt O43293).
Assay [17] has as its target Testis-specific serine/threonine-protein kinase 1 (Homo sapiens, UniProt Q9BXA7).
The target of assay [18] is Maternal embryonic leucine zipper kinase (Homo sapiens, UniProt Q14680).
Assay [19] has as its target T2, Serine/threonine-protein kinase PLK4 (Homo sapiens, UniProt O00444).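 Also: PLK4 measured as one member of a kinome-wide kinase profiling panel.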
T2 sequence (O00444 whole entry): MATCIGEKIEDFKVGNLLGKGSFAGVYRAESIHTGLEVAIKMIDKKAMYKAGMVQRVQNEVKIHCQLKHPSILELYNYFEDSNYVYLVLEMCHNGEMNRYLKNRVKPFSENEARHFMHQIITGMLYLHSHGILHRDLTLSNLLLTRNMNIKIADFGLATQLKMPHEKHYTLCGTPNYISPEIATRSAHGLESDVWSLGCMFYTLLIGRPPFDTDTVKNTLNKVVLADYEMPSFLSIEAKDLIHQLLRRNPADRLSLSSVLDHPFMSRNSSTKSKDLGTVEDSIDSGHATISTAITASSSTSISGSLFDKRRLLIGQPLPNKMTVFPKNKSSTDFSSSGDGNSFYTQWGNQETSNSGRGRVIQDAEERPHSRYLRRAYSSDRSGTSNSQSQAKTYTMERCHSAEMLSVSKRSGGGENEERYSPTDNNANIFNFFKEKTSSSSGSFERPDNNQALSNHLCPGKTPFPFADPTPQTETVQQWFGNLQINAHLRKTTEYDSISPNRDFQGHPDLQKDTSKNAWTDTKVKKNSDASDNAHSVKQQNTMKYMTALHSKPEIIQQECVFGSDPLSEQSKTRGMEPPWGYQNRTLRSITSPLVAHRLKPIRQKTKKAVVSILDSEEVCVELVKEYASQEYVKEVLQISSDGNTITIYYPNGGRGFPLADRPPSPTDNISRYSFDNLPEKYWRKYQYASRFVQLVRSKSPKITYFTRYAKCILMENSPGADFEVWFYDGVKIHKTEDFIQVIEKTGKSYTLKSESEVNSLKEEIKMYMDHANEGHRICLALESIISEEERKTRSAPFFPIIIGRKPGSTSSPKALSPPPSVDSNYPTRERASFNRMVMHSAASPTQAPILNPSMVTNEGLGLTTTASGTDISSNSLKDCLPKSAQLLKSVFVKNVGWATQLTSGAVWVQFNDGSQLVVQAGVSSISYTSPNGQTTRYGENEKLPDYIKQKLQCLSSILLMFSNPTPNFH

The target of assay [20] is Cyclin-dependent kinase 9 (Homo sapiens, UniProt P50750).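 Also: value from the CDK9 entry of a kinome-spanning kinase panel.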
Cyclin-dependent kinase 9, sequence (P50750 whole entry): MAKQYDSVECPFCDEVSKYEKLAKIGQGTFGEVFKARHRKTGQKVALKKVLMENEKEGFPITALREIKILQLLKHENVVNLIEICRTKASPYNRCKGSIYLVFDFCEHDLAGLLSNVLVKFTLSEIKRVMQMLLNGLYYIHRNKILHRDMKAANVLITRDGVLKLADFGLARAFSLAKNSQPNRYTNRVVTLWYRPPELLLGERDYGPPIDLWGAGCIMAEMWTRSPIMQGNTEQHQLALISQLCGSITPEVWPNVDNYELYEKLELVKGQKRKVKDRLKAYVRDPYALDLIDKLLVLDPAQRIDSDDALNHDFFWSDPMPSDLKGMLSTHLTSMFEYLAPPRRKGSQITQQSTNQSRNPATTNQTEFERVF

Death-associated protein kinase 3, sequence (O43293 whole entry): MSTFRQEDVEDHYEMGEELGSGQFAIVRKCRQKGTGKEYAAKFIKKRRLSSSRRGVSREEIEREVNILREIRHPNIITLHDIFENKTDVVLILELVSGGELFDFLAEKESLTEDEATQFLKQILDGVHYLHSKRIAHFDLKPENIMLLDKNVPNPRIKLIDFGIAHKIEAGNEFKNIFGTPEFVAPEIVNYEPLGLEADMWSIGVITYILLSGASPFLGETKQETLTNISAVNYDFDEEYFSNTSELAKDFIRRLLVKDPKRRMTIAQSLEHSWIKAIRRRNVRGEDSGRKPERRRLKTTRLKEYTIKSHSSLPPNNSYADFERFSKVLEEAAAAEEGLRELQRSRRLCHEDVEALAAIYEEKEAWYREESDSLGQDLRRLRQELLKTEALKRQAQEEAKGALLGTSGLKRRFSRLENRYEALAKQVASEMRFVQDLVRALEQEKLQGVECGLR
RAC-alpha serine/threonine-protein kinase, sequence (P31749 whole entry): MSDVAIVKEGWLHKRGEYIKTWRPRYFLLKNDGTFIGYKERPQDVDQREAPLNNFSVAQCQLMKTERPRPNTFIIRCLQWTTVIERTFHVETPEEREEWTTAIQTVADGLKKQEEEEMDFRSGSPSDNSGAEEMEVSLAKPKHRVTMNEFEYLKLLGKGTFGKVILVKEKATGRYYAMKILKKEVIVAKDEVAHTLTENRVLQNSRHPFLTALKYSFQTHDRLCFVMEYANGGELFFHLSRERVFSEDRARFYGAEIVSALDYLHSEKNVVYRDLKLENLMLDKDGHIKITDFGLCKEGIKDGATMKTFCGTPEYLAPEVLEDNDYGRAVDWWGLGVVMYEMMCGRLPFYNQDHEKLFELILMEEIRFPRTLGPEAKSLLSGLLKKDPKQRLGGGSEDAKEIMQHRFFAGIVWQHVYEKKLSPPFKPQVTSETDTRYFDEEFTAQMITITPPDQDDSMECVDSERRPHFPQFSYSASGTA
cGMP-dependent protein kinase 1, sequence (Q13976 whole entry): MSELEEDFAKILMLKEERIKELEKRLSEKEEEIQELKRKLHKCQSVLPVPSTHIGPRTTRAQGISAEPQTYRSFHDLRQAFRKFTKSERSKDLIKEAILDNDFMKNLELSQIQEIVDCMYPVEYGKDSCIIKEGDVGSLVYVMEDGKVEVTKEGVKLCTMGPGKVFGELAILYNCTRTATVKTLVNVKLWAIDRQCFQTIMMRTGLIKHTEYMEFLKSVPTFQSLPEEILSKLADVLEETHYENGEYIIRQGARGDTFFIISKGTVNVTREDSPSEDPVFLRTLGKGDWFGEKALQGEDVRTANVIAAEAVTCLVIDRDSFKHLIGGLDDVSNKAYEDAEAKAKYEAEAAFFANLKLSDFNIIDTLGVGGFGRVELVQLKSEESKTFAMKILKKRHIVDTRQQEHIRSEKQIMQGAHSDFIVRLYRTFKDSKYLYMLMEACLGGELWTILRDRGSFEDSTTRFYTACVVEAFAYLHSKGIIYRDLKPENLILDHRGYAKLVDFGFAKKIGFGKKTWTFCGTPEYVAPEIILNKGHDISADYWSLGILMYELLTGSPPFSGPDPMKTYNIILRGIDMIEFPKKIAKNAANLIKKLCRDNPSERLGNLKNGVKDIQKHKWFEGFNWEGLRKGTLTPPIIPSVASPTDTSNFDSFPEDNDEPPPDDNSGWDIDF
Testis-specific serine/threonine-protein kinase 1, sequence (Q9BXA7 whole entry): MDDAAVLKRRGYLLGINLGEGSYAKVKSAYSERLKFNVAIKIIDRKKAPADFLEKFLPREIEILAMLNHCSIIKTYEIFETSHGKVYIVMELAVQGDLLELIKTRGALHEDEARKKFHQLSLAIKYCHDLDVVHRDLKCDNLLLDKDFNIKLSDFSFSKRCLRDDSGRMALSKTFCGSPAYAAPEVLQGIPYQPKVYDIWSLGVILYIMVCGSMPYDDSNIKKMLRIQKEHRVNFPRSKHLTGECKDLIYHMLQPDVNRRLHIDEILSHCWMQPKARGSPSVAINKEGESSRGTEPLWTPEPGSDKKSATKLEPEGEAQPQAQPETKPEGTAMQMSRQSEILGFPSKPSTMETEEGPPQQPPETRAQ
cAMP-dependent protein kinase catalytic subunit PRKX, sequence (P51817 whole entry, canonical isoform): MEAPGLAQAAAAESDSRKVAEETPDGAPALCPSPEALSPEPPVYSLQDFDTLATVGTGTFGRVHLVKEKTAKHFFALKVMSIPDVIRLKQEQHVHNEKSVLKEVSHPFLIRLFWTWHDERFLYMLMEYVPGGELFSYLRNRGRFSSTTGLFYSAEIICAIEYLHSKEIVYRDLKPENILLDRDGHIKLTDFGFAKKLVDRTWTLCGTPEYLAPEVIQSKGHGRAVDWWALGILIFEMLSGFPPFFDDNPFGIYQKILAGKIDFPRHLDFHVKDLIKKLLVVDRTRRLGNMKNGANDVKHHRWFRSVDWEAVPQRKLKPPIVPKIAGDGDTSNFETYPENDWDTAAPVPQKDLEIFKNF

One may read the Ki as the equilibrium dissociation constant of an inhibitor or competing ligand from its target. Regarding `Cc1ccc2nccc(NC(=O)Nc3cccc(C(F)(F)F)n3)c2c1`, the inhibition constant (Ki) in [1] is 2.51 µM (active); on Ephrin type-A receptor 2 it was > 3.16 µM (inactive); in [2], > 1.58 µM (inactive); in assay [3] it was > 10 µM (inactive); in assay [4] it was > 2.51 µM (inactive); in assay [5], > 6.31 µM (inactive). Further, the inhibition constant Ki in assay [6] is 0.794 µM (active); in assay [7] it was > 7.94 µM (inactive); in assay [8] it was > 7.94 µM (inactive); in [9], > 10 µM (inactive); in assay [10], 1.26 µM (active); in assay [11], > 3.16 µM (inactive). The Ki in assay [12] is 0.2 µM (active); in [13], > 2.51 µM (inactive); in assay [14] it was 5.01 µM (active); in assay [15] it was > 2 µM (inactive); in assay [16] it was > 1.26 µM (inactive); in [17], > 1.58 µM (inactive). For the same compound, the figures for the Ki in assay [18] and in assay [19] were > 1.58 µM (inactive) and > 3.98 µM (inactive), respectively.

As to `Cc1nn(C)c2sc3c(=O)[nH]cnc3c12`, the Ki in assay [20] was > 63.1 µM (inactive); in assay [8], > 79.4 µM (inactive); in [10] it was 39.8 µM (active); in [12], 25.1 µM (active); in assay [13], > 63.1 µM (inactive); in assay [16], 50.1 µM (active). In addition, the Ki in assay [19] is > 39.8 µM (inactive).

Turning to `COc1cc2c(cc1F)C(c1ccccc1Cl)=Nc1c(n[nH]c1C)N2` [RG-1530], the Ki was > 1.58 µM (inactive) in assay [20]; 0.0398 µM (active) in assay [1]; 0.0501 µM (active) at Ephrin type-A receptor 2; 0.126 µM (active) in [2]; > 10 µM (inactive) in assay [3]; > 1.58 µM (inactive) in assay [4]. Besides, the Ki is > 6.31 µM (inactive) in [5]; > 3.16 µM (inactive) in assay [6]; > 7.94 µM (inactive) in assay [7]; > 7.94 µM (inactive) in [8]; 0.316 µM (active) in [9]; > 3.98 µM (inactive) in [10]. Besides, the inhibition constant (Ki) in assay [11] was 0.2 µM (active); in [12], > 3.98 µM (inactive); in assay [14], 3.98 µM (active); in [15], > 2 µM (inactive); in assay [16], > 1.26 µM (inactive); in assay [17], > 1.58 µM (inactive). Also, the figures for the inhibitory constant (Ki) in [18] and in assay [19] were 1.26 µM (active) and 0.0126 µM (active), respectively.
